The source of these data is patent EP2100593B1, “Ternary mixtures with increased collagen synthesis” (Symrise AG, priority 2008, dated 2009).

For this test, the system named is Normal Humane Dermalen Fibroblasten (NHDF). Kind of test: Collagen synthesis stimulation in aged NHDF monolayer culture, Sirius Red staining (OD 540 nm). It counts as cell-based, Human. The settings on record: 48 h incubation. From the text: Verantwortlich für die Collagensynthese in der Dermis-Schicht der Haut sind Fibroblasten. Als Testsystem werden Normal Humane Dermalen Fibroblasten (NHDF) in einer so genannten Monolayer-Kultur in 96-Well-MTPs kultiviert, über einen definierten Zeitraum mit Testsubstanzen inkubiert und anschließend die Collagenzunahme […] über eine Färbemethode bestimmt.
Das Assay-Prinzip basiert auf der histologischen, spezifischen Anfärbung von löslichem Collagen (vorwiegend Collagen Typ I und III) mit Hilfe des Farbstoffes Sirius Red (Direct Red 80). Sirius Red ist ein anionischer Farbstoff an dessen Seitenketten Sulphonsäuregruppen angelagert sind. Diese Sulphonsäuregruppen reagieren mit den Seitenkettengruppen der im Collagen vorwiegend vorkommenden Aminosäuren (Prolin, Hydroxyprolin, Lysin und Hydroxylysin), wobei eine intakte Collagenstruktur gegeben sein muss. [drawing 1]
Als Vorlage für das Assay-Design dient die bei B.J.Walsh et al., Analytical Biochemistry 203, 187-190 (1992) beschriebene Vorgehensweise zur quantitativen Bestimmung von Collagen im 96-Well Maßstab.
Die Collagensynthese steigernde Wirkung der Testsubstanzen wird an in vitro gealterten (>8. Passage) NHDF in 96-Well Mikrotiterplatten (2*10^4 Zellen pro Well) getestet. Für jedes Prüfmuster muss zuvor ein geeignetes Lösungsmittel ermittelt werden, in dem eine Stocklösung des Prüfmusters angesetzt wird. Die Inkubationslösungen der Testsubstanzen werden anschließend in mit 0,2% BSA supplementiertem DMEM hergestellt. Mögliche Lösungsmittel sollten in allen Verdünnung der Inkubationslösung max. 0,2 %ig vorliegen. Die maximale Einsatzkonzentration der Testsubstanzen resultiert aus den in der Zytotoxizitäts-Untersuchung (Resazurin-Assay an 3T3 Maus Fibroblasten) gewonnen IC20-Werten und ist auf 0,1*IC20 festgelegt.
Nach einer 24h-igen Adaptionsphase der NHDF werden die Zellen für 48 h mit den Inkubationslösungen und entsprechenden Kontroll-Lösungen (Lösungsmittel und Blank) inkubiert (37°C, 5% CO2). […]

Setting [1] is: Tabelle 2, Einsatzkonzentration 1.020 mg/ml.

“And” between values parts separate entries of the source, which are not always exact repeats. Equal entries are not always repeated.

Take `O=C1O[C@H]([C@@H](O)CO)C(O)=C1OP(=O)(O)O` [Magnesium Ascorbylphosphat (Bio172), Magnesium Ascorbylphosphat]: the “Collagensynthese Steigerung [%], bezogen auf unbehandelte Kontrolle” value (Tabelle 1, Einsatzkonzentration 0.362 mg/ml) was 66.97% and 67.44%.
On to `O=C1O[C@H]([C@@H](O)CO)C([O-])=C1OP(=O)([O-])[O-].O=C1O[C@H]([C@@H](O)CO)C([O-])=C1OP(=O)([O-])[O-].[Mg+2].[Mg+2].[Mg+2]` [Magnesium Ascorbylphosphat (Bio1300/1), Magnesium Ascorbylphosphat], for which the “Collagensynthese Steigerung [%], bezogen auf unbehandelte Kontrolle” value under setting [1] is given as 141.13%.
Still for that read-out and setting: the value for `O=C1O[C@H]([C@@H](O)CO)C([O-])=C1OP(=O)([O-])[O-].[Na+].[Na+].[Na+]` [Natrium Ascorbylphosphat (Bio1586), Natrium Ascorbylphosphat] was 144.57%.
